According to paper PMC9124651, “High-performance thin-layer chromatography in combination with an acetylcholinesterase-inhibition bioassay with pre-oxidation of organothiophosphates to determine neurotoxic effects in storm, waste, and surface water” (Analytical and Bioanalytical Chemistry, 2022):
≈ marks a conversion by molar mass, not a printed value.

Biological target: T1, AChE from electric eel (Electrophorus electricus) (Electrophorus electricus, UniProt O42275)
T1 construct: purchased Sigma-Aldrich GmbH (Steinheim, Germany)
Assay: AChE-inhibition microtiter assay (Ellman, 96-well, with or without NBS oxidation)
Format: biochemical
Conditions: for IC80 / IC20: no oxidation, 4-PL fit, n = 4; for IC80: read-out: IC20 (inhibition concentration for 20% AChE activity), best fit; for IC20: read-out: IC80 (inhibition concentration for 80% AChE activity), best fit
Description: Stock solutions (1 mg/mL) of NBS and ascorbic acid were each freshly prepared before the test and then diluted to 10 µg/mL and 100 µg/mL, respectively. The assay was performed with modifications according to Ellman’s method. OTPs, oxons, water, and methanol blanks (15 µL) were each mixed with 15 µL of NBS (10 µg/mL) in a 96-well plate. After an incubation at room temperature for 5 min, the reaction was stopped by adding 15 µL ascorbic acid (100 µg/mL). For the test setup without oxidation, OTPs, oxons, water, and methanol blanks (15 µL) were mixed with 30 µL water per well. Subsequently, 200 µL of a DTNB solution (0.15 mM), buffered in TRIS/HCl at a pH of 7.4, was added to each well of both test setups. Then, 20 µL of an AChE solution (0.5 U/mL), also buffered in TRIS/HCl at a pH of 7.4, was added. An incubation at 30 °C for 30 min without shaking followed. An ATCL solution (0.8 mM) was freshly prepared with water and 30 µL per well was added after incubation. During another incubation at room temperature for 30 min, ATCL was cleaved by AChE into thiocholine and acetic acid. Thiocholine reacts with DTNB to 2-nitro-5-thiobenzoate. The absorbance of the yellow-colored anion was photometrically measured at 405 nm (Sunrise Remote, Tecan Group AG, Männedorf, Schweiz).
Dilution series with eight concentrations of the three OTPs and related oxons (Tab. S1) were freshly prepared from stock solutions (1–10 mg/mL) in methanol. The OTPs and oxons were tested in duplicates with and without prior oxidation in two measurements as described in the “AChE-inhibition microtiter assay” section. Eight water and eight methanol blanks were tested per test setup (oxidation and no oxidation). Of these, two were tested without AChE and two without ATCL. The mean AChE activity (absorption at 405 nm, n = 4) was related to the specific inhibitor dose. The statistic program Prism (version 5.00, Graph Pad Software, San Diego, USA) was used to generate dose–response curves (4-PL fit) and to determine inhibition concentrations (ICs) for the three OTPs and related oxons. The 95% confidence intervals of the curves and the standard deviations of the mean AChE activity were also calculated. The lower boundary of the curves is fixed to 0 and the highest mean activity defines 100%.

T1 sequence (O42275 24-633): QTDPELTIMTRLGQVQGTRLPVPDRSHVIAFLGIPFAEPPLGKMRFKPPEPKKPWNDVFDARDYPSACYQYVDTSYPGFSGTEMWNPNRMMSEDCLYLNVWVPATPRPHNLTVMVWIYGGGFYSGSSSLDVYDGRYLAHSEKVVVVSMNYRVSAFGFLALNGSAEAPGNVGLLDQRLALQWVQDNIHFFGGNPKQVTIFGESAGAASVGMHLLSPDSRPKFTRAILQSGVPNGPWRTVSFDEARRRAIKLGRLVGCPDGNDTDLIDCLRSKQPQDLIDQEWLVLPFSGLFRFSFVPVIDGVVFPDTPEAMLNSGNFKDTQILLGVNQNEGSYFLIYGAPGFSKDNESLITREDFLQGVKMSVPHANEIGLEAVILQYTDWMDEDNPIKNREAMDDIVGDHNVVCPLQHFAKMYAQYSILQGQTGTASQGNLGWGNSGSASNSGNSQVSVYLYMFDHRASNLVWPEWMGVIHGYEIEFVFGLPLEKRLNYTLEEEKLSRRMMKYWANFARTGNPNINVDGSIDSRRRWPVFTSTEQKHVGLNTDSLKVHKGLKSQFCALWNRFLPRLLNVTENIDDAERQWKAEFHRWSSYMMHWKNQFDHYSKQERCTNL

SMILES | IC50 [nM] | IC80 [ng/mL] | IC20 [ng/mL]
CCOC(=O)CC(SP(=O)(OC)OC)C(=O)OCC (centres unmarked) [Malaoxon, malaoxon] | 38.2 | 42 (≈ 0.134 µM) | 3.5 (≈ 0.0111 µM)
CCOP(=O)(OCC)Oc1nc(Cl)c(Cl)cc1Cl [Chlorpyrifos-oxon] | – | 16 (≈ 0.0478 µM) | 3.8 (≈ 0.0114 µM)
